Laboratory results from article PMC11120720, “Linking Variability in Phytochemical Composition with Safety Profile of Thymus carnosus Boiss. Extracts: Effect of Major Compounds and Evaluation of Markers of Oxidative Stress and Cell Death” (International Journal of Molecular Sciences, 2024).
Where two headings read alike, the source gives them in different places.

What was measured:
HepG2 cells [1] = assay: Mitochondrial membrane potential (JC-1, flow cytometry), HepG2; format: cell-based, human; details: compound 50 µM, 24 h
Protocol: (§1) Flow cytometry was used to analyze the effect of T. carnosus extracts on intracellular ROS, modulation of mitochondrial membrane potential (MMP), cell cycle arrest, and apoptotic/necrotic cell death induction.
(§2) Both one- and two-color assays were performed using a BD Accuri™ C6 cytometer (Becton Dickinson, Franklin Lakes, NJ, USA), and 10,000 gated events were collected from each sample [1]. For flow cytometry assays, cells were handled as described previously but seeded at a density 5 × 10^4 cells/mL (750 μL/well) in 12-well plates. Caco-2 and HepG2 cells were incubated for 24 h with the extracts (100 µg/mL) or individual phytochemicals (50 µM) diluted in FBS-free culture media h. After incubation, test solutions were removed; the cells were washed with PBS and detached from the plates using trypsin-EDTA. Once transferred to centrifuge tubes, the cells were centrifuged (bench micro-centrifuge; 3000 rpm; 3 min), the supernatant was discarded, and a new wash cycle was performed. The cells were then equally divided for each assay. A negative control was used in all assays consisting of nonexposed cells incubated only with culture media.
(§3) Mitochondrial membrane potential (MMP) was evaluated using 5,5″,6,6″-tetrachloro-1,1″,3,3″-tetraethylbenzimidazolylcarbocyanineiodide (JC-1). Cells were processed as described for DCFDA but incubated with 200 µL of JC-1 (2 µM, in FBS-free DMEM) for 20 min (37 °C, in the dark).

HepG2 cells [2] = details: cited from earlier work
HepG2 cells [3] = assay: Intracellular ROS (DCFDA, flow cytometry), HepG2; format: cell-based, human; details: compound 50 µM, 24 h
Protocol: (§4) The cells were then equally divided for each assay.
(§5) Intracellular ROS level assessment was performed as described by Silva et al., 2022 [65], using dichlorodihydrofluorescein diacetate (DCFDA). Cells obtained in the previous step were centrifuged, the supernatant discarded, and 200 µL of DCFDA (10 µM in FBS-free DMEM) was added. Cells were incubated for 45 min (37 °C, in the dark), washed to remove excess probe, and resuspended in PBS for data acquisition.

[4] = tested on: human prostate cancer cells; design: method as in PMID 29898731; details: 40 µM; cited from earlier work
HepG2 cells [5] = assay: Annexin V-FITC/PI apoptosis/necrosis, HepG2; format: cell-based, human; details: compound 50 µM, 24 h
Protocol: as §4
(§6) For the assessment of apoptotic/necrotic cell death, an Annexin V-FITC (Thermo Fisher Scientific, Waltham, MA, USA) and propidium iodide (PI; Merck, Darmstadt, Germany) double-staining assay was used to evaluate the apoptotic/necrotic cell death induced by T. carnosus extracts and by individual phytochemicals, as described previously. Briefly, after detachment and washing, the supernatant was discarded, and 200 µL of Annexin V-FITC (1:200 dilution in Annexin-binding buffer [10 mM HEPES sodium salt, 150 mM NaCl, 5 mM KCl, 5 mM MgCl2, and 1.8 mM CaCl2; pH = 7.4]) was added. Cells were incubated for 20 min (room temperature, in the dark). After incubation, 5 µL of propidium iodide (PI; 50 µg/mL) was added, the cells were incubated for 5 min on ice (in the dark), and the data were acquired.

Caco-2 cells [6] = assay: Cell cycle arrest (PI, flow cytometry), Caco-2; format: cell-based; details: compound 50 µM, 24 h
Protocol: as §4
(§7) Cell cycle arrest assessment was performed as described in [1]. Cells were processed as described above until cell detachment and centrifuged, after which the second washing step was performed with ice-cold PBS (0 °C). After centrifugation, the supernatant was discarded, and cells were fixed with 500 µL of ethanol:PBS solution (70:30, % v/v, previously cooled at −20 °C) for at least 4 h at −20 °C. After fixation, two washing cycles were performed: the first with ice-cold PBS (0 °C) and the second with room-temperature PBS, followed by the addition of 200 µL of a PBS solution containing PI (50 µg/mL), RNAse A (50 µg/mL), and Triton X-100 (0.1%). Cells were incubated for 30 min at 37 °C, and then cells were washed once with PBS to remove the staining solution. After resuspension in PBS, the data were acquired.

[7] = Alamar Blue cell viability assay, Caco-2; format: cell-based, human; details: human, Caco-2
Protocol: (§8) The safety profile of T. carnosus AD and HE extracts was evaluated in Caco-2 and HepG2 cells using an Alamar Blue® (Invitrogen; Alfagene, Lisboa, Portugal) assay. An initial screening was performed for all extracts at concentrations ranging between 100 and 1000 µg/mL. Due to the higher toxicity of the HE extracts, which was previously described for various extracts of Thymus species using the same extraction methods (e.g., T. mastichina and Thymus zygis), a different set of concentrations was used for the HE extracts (between 100 and 300 µg/mL for Caco-2 cells and 50 and 150 µg/mL for HepG2 cells). Figure 1 presents the data related to the cell viability assays in Caco-2 (panels A–E) and HepG2 cells (panels F–J) exposed to T. carnosus extracts, as indicated.
(§9) The safety profile of T. carnosus extracts was assessed in Caco-2 and HepG2 cells. Caco-2 (human colon adenocarcinoma cell line) were obtained from CLS (Cell Lines Service, Eppelheim, Germany), and HepG2 (human hepatocellular carcinoma cell line) were obtained from ATCC (American Type Culture Collection, Manassas, VA, USA).
(§10) Cell culture maintenance, handling, subculturing, and seeding were performed as described by Silva et al., 2020 [5], and cell viability was assessed using an Alamar Blue® assay, as described by Andreani et al., 2014 [64]. Concentrations ranged between 100 and 1000 µg/mL for AD extracts in both cell lines and 100 to 300 µg/mL or 50 to 150 µg/mL for HE extracts in Caco-2 and HepG2 cells, respectively. The effect of individual compounds on cell viability was assessed for concentrations ranging from 50 to 300 µM. All test solutions were prepared by diluting the samples in FBS-free culture media from the stock solutions described in Section 3.2, just prior to being used.
(§11) The results are presented as mean ± SD of at least three independent assays. The calculation of IC50 values was performed as described by Silva et al., 2020 [5]. Data analysis, graphical design, and statistical analysis were performed using Microsoft Office Excel (Professional Plus 2019; Microsoft Corporation, Washington, DC, USA) and GraphPad Prism (Version 8; GraphPad Software Inc., San Diego, CA, USA). Flow cytometry data analysis was performed using BD Accuri™ C6 Software, version 1.0.264.21 (Becton Dickinson, San Diego, CA, USA).

Caco-2 cells [8] = assay: Alamar Blue cell viability assay, Caco-2; format: cell-based, human; details: for IC50: Homo sapiens, Caco-2
Protocol: as §8, §9, §10, §11

Caco-2 cells [9] = assay: Annexin V-FITC/PI apoptosis/necrosis, Caco-2; format: cell-based; details: compound 50 µM, 24 h
Protocol: as §4, §6

HepG2 cells [10] = assay: Cell cycle arrest (PI, flow cytometry), HepG2; format: cell-based, human; details: compound 50 µM, 24 h
Protocol: as §4, §7

[11] = tested on: murine melanoma cells (B16-BL6 cells); design: method as in PMID 15538571; details: cited from earlier work
[12] = Alamar Blue cell viability assay, HepG2; format: cell-based, human; details: human
Protocol: as §8, §9, §10, §11

HepG2 cells [13] = assay: Alamar Blue cell viability assay, HepG2; format: cell-based, human; details: for IC50: Homo sapiens, HepG2
Protocol: as §8, §9, §10, §11

Caco-2 cells [14] = details: cited from earlier work
Caco-2 cells [15] = assay: Intracellular ROS (DCFDA, flow cytometry), Caco-2; format: cell-based; details: compound 50 µM, 24 h
Protocol: as §4, §5

[16] = tested on: HCT-116 human colorectal carcinoma cells; details: cited from earlier work
[17] = tested on: colorectal cancer cell line CT26; design: method as in PMID 29459827; details: cited from earlier work
Caco-2 cells [18] = details: compound 50 µM, 24 h
Protocol: as §1, §2, §3

[19] = tested on: human prostate carcinoma (DU 145) cells; details: cited from earlier work
[20] = tested on: DLD-1, Dukes-type C colorectal adenocarcinoma; details: cited from earlier work
[21] = tested on: HONE-2 nasopharyngeal carcinoma cells; design: method as in PMID 31981746; details: 50 µM; cited from earlier work
[22] = tested on: NPC-39 nasopharyngeal carcinoma cells; design: method as in PMID 31981746; details: 50 µM; cited from earlier work
[23] = tested on: human lung adenocarcinoma (H1975) cells; details: cited from earlier work
[24] = tested on: human small cell lung cancer cells (SCLCs); design: method as in doi:10.4314/tjpr.v14i8.11; details: 50 and 100 µM; cited from earlier work
[25] = tested on: human lung cancer (A549) cells; details: cited from earlier work
HeLa cells = details: cited from earlier work
[26] = 24 h exposure, read-out: IC50 (µM) - Caco-2 cells: 24 h
[27] = 48 h exposure, read-out: IC50 (µM) - Caco-2 cells: 48 h
[28] = 24 h exposure, read-out: IC50 (µM) - HepG2 cells: 24 h
[29] = 48 h exposure, read-out: IC50 (µM) - HepG2 cells: 48 h

O=c1c(O)c(-c2ccc(O)c(O)c2)oc2cc(O)cc(O)c12 [Quercetin, quercetin]
MMP modulation, HepG2 (HepG2 cells [1]): did not induce variations in the MMP
concentrations reducing HepG2 cell viability (HepG2 cells [2]; 24 h of exposure): ≥ 33 µM
change in intracellular ROS, HepG2 (HepG2 cells [3]): significant increase in ROS
MMP modulation, prostate cancer cells [4]: loss of MMP
% of healthy HepG2 cells (HepG2 cells [5]): ~ 76%
cell death induction, HepG2 (HepG2 cells [5]): shift in the cell population to both early and late apoptosis
cell cycle effect, Caco-2 (Caco-2 cells [6]): cell cycle arrest in the S and G2/M phases
viability at 48 h, 50 µM ([7]; 50 µM, 48 h, Figure 2E): 77.6%
viability at 48 h ([7]; 50-100 µM, 48 h, read-out: cell viability, Caco-2): ≥ 68%
viability at 24 h ([7]; concentrations up to 200 µM, 24 h, Figure 2E): ~90%
concentrations giving significant decrease in Caco-2 cell viability (Caco-2 cells [8]; 24 h): ≥ 75 µM
IC50 (Caco-2 cells [8]; [26]): > 300 µM
IC50 (Caco-2 cells [8]; [27]): 109 µM
% of healthy Caco-2 cells (Caco-2 cells [9]): ~ 86%
cell death induction, Caco-2 (Caco-2 cells [9]): shift in the cell distribution into late apoptosis
cell cycle effect, HepG2 (HepG2 cells [10]): cell cycle arrest was observed in the G0/G1 phase
MMP modulation, B16-BL6 [11]: loss of MMP
viability at 48 h ([12]; HepG2 cells, 50-100 µM, 48 h): ≤ 20%
concentrations reducing HepG2 cell viability (HepG2 cells [13]; 50 µM = lowest concentration tested, Figure 2M): ≥ 50 µM
IC50 (HepG2 cells [13]; [28]): 141 µM
IC50 (HepG2 cells [13]; [29]): 10.1 µM
cell viability, Caco-2 (Caco-2 cells [14]; 50 µM, 48 h): 75–80%
effect on Caco-2 cell viability (Caco-2 cells [14]; 100 µM, 24 h): no changes in cell viability

O=C(/C=C/c1ccc(O)c(O)c1)O[C@H](Cc1ccc(O)c(O)c1)C(=O)O [Rosmarinic acid]
MMP modulation, HepG2 (HepG2 cells [1]): slight decrease in MMP
concentrations giving significant reduction in HepG2 cell viability (HepG2 cells [2]): ≥ 34.69 µM
IC50 (HepG2 cells [2]; read-out: IC50 (48 h), HepG2 cells, 48 h): 91 µM
change in intracellular ROS, HepG2 (HepG2 cells [3]): significant (p < 0.05) increase in intracellular HepG2 ROS levels
cell death induction, HepG2 (HepG2 cells [5]): necrosis in HepG2 cells
cell cycle effect, Caco-2 (Caco-2 cells [6]): cell cycle arrest in G0/G1
viability at 24 h, 300 µM [7]: 87.8%
viability at 48 h, 300 µM [7]: 72.6%
IC50 (Caco-2 cells [8]; [26]): > 300 µM
IC50 (Caco-2 cells [8]; [27]): > 300 µM
cell death induction, Caco-2 (Caco-2 cells [9]): significant increase in both late apoptosis and necrosis
cell cycle effect, HepG2 (HepG2 cells [10]): induced cell cycle arrest in both cell lines but in different phases
viability at 24 h, 300 µM [12]: 65.2%
IC50 (HepG2 cells [13]; [28]): > 300 µM
IC50 (HepG2 cells [13]; [29]): > 300 µM
concentrations that did not reduce Caco-2 cell viability (Caco-2 cells [14]; Caco-2): ≤ 90 µM
change in intracellular ROS, Caco-2 (Caco-2 cells [15]): neither RA nor eriodictyol induced ROS increases
cell cycle effect, HCT-116 [16]: cell cycle arrest in G0/G1
cell cycle effect, CT26 [17]: cell cycle arrest in G0/G1

O=C(/C=C/c1ccc(O)c(O)c1/C=C/c1ccc(O)c(O)c1)O[C@H](Cc1ccc(O)c(O)c1)C(=O)O [Salvianolic acid A, salvianolic acid A]
MMP modulation, Caco-2 (Caco-2 cells [18]): significant loss of MMP
IC50 [19]: ≤ 30 µM
concentrations with no or low cytotoxicity, DLD-1 [20]: up to 50 µM
effect on cell viability, HONE-2 [21]: no reduction in cell viability
effect on cell viability, NPC-39 [22]: no reduction in cell viability
IC50 [23]: ≤ 30 µM
MMP modulation, SCLC cells [24]: loss of MMP
viability at 48 h, 300 µM [7]: 54.4%
IC50 (Caco-2 cells [8]; [26]): > 300 µM
IC50 (Caco-2 cells [8]; [27]): > 300 µM
IC50 [25]: ≤ 30 µM
IC50 (HeLa cells): ≤ 30 µM
IC50 (HepG2 cells [13]; [28]): > 300 µM
IC50 (HepG2 cells [13]; [29]): > 300 µM
concentrations with no or low cytotoxicity, HCT-116 [16]: up to 50 µM
